# Data from PMC6691761, “Potential multifunctional agents with anti-hepatoma and anti-inflammation properties by inhibiting NF-кB activation” (Journal of Enzyme Inhibition and Medicinal Chemistry, 2019).
# Tests used:
# Assay type in all cases: cell-based
# [1] = tested on: human breast cancer cells (MCF-7); assay: Cytotoxicity, MTT assay, MCF-7; conditions: for IC50: MTT, 24 h; for MCF-7 SI (selectivity index): quotient of IC50 towards LO2 cells
# From the text: (§1) Compounds 83–102 were screened against human neoplastic cell lines, such as human breast cancer cells (MCF-7), human colon cancer cells (HCT116), human lung carcinoma cells (A549), human gastric adenocarcinoma cells (SGC7901), human liver hepatocellular carcinoma cell line (HepG2), human cervical carcinoma cells (HeLa), human acute mononuclear granulocyte leukaemia (THP-1), and human normal hepatic cell line (LO2) using modified MTT assay. All the cells were obtained from the American Type Culture Collection (ATCC, Manassas, VA). The cells were cultured in DMEM or 1640. Positive controls (Doxorubicin (DOX) and Curcumin) and BAPs were initially dissolved in dimethyl sulphoxide (DMSO). Experimental concentration of DMSO was always 0.1% (v/v). The concentrations of BAPs and positive controls were 50, 20, 10, 5, 2.5, 1, 0.5, 0.1, 0.05, and 0.01 μg/mL.
# (§2) The cells (1 × 10^4 cells/well) were seeded in a 96-well plate and incubated for 24 h. Cells treated with serial concentrations of drugs were incubated for another 24 h. After the media removed, 20 μL of MTT (5 mg/mL) solution was added and incubated for 4 h at 37 °C. The MTT solution was removed and then 150 μL of DMSO was added. The optical density was measured with a multi-well plate reader (TECAN, Mӓnnedorf, Switzerland) at 570 nm. The results are expressed as a decrease in the cell viability (%) in comparison to untreated controls. The concentration of each compound was examined in triplicate, and the IC50 values are expressed in Table 1.
# [2] = tested on: human colon cancer cells (HCT116); assay: Cytotoxicity, MTT assay, HCT116; conditions: for IC50: MTT, 24 h; for HCT116 SI (selectivity index): quotient of IC50 towards LO2 cells
# From the text: as §1, §2
# [3] = tested on: human lung carcinoma cells (A549); assay: Cytotoxicity, MTT assay, A549; conditions: for IC50: MTT, 24 h; for A549 SI (selectivity index): quotient of IC50 towards LO2 cells
# From the text: as §1, §2
# [4] = tested on: human gastric adenocarcinoma cells (SGC7901); assay: Cytotoxicity, MTT assay, SGC7901; conditions: for IC50: MTT, 24 h; for SGC7901 SI (selectivity index): quotient of IC50 towards LO2 cells
# From the text: as §1, §2
# [5] = tested on: human liver hepatocellular carcinoma cell line (HepG2); assay: Cytotoxicity, MTT assay, HepG2; conditions: for IC50: MTT, 24 h; for HepG2 SI (selectivity index): quotient of IC50 towards LO2 cells
# From the text: as §1, §2
# [6] = tested on: human cervical carcinoma cells (HeLa); assay: Cytotoxicity, MTT assay, HeLa; conditions: for IC50: MTT, 24 h; for HeLa SI (selectivity index): quotient of IC50 towards LO2 cells
# From the text: as §1, §2
# [7] = tested on: human acute mononuclear granulocyte leukaemia (THP-1); assay: Cytotoxicity, MTT assay, THP-1; conditions: for IC50: MTT, 24 h; for THP-1 SI (selectivity index): quotient of IC50 towards LO2 cells
# From the text: as §1, §2
# [8] = tested on: human normal hepatic cell line (LO2); assay: Toxicity to normal cells, MTT assay, LO2; conditions: 24 h
# From the text: as §1, §2
SMILES,IC50 [1],MCF-7 SI (selectivity index) [1],IC50 [2],HCT116 SI (selectivity index) [2],IC50 [3],A549 SI (selectivity index) [3],IC50 [4],SGC7901 SI (selectivity index) [4],IC50 [5],HepG2 SI (selectivity index) [5],IC50 [6],HeLa SI (selectivity index) [6],IC50 [7],THP-1 SI (selectivity index) [7],IC50 [8],further results
COc1cc(/C=C2\CN(C)C/C(=C\c3ccc(F)cc3Br)C2=O)cc(OC)c1OC [Compound 88],6.3 ± 0.4 µM,2.3,6.5 ± 0.3 µM,2.3,5.6 ± 0.3 µM,2.6,3.6 ± 0.1 µM,4.1,5.3 ± 0.2 µM,2.8,5.3 ± 0.3 µM,2.8,7.6 ± 0.2 µM,1.9,14.8 ± 0.3 µM,–
CN1C/C(=C\c2cc(F)cc(F)c2)C(=O)/C(=C/c2cccc([N+](=O)[O-])c2)C1 [Compound 85],18.5 ± 0.4 µM,1.1,13.2 ± 0.5 µM,1.5,9.7 ± 0.2 µM,2.1,24.5 ± 0.8 µM,0.8,14.3 ± 0.1 µM,1.4,14.2 ± 0.6 µM,1.4,5.4 ± 0.3 µM,3.8,20.3 ± 0.1 µM,–
"CN1C/C(=C\c2cccc([N+](=O)[O-])c2)C(=O)/C(=C/c2ccccc2F)C1 [Compound 83, (3E,5E)-3–(2-fluorobenzylidene)-1-methyl-5–(3-nitrobenzylidene)piperidin-4-one]",–,1.8,–,2.1,–,5.7,–,3.5,–,–,–,5.2,–,–,–,"IC50 ([1]; Homo sapiens, MCF7): 7.2 ± 0.3 µM; IC50 ([2]; Homo sapiens, HCT-116): 6.2 ± 0.6 µM; IC50 ([3]; Homo sapiens, A549, 24 h): 2.3 ± 0.2 µM; IC50 ([4]; Homo sapiens, SGC-7901): 3.7 ± 0.3 µM; IC50 ([5]; Homo sapiens, HepG2, 24 h): 1.2 ± 0.2 µM; IC50 ([6]; Homo sapiens, HeLa): 2.5 ± 0.3 µM; IC50 ([7]; Homo sapiens, THP-1, 24 h): 1.3 ± 0.1 µM; IC50 ([8]; Homo sapiens): 13.1 ± 0.8 µM"
CN1CC(=Cc2cccc(N=Cc3ccc(O)cc3O)c2)C(=O)C(=Cc2ccccc2F)C1 [Compound 98],10.3 ± 0.7 µM,1.7,11.4 ± 0.7 µM,1.5,3.2 ± 0.7 µM,5.5,10.9 ± 0.3 µM,1.6,7.5 ± 0.1 µM,2.3,6.2 ± 0.1 µM,2.8,5.1 ± 0.2 µM,3.5,17.6 ± 0.2 µM,–
CN1CC(=Cc2cccc(N=Cc3ccc(Cl)c(Cl)c3)c2)C(=O)C(=Cc2ccccc2F)C1 [Compound 95],5.4 ± 0.2 µM,2.0,6.3 ± 0.2 µM,1.7,3.1 ± 0.2 µM,3.5,3.3 ± 0.5 µM,3.3,2.5 ± 0.1 µM,4.4,4.3 ± 0.1 µM,2.6,3.8 ± 0.1 µM,2.9,11 ± 0.4 µM,–
"COc1cc(/C=C/C(=O)CC(=O)/C=C/c2ccc(O)c(OC)c2)ccc1O [Curcumin, reference compound]",–,1.4,–,1.6,–,1.2,–,1.2,–,1.4,–,1.5,–,1.4,–,"IC50 ([1]; Homo sapiens, MCF7): 20.5 ± 0.2 µM; IC50 ([2]; Homo sapiens, HCT-116): 17.2 ± 0.3 µM; IC50 ([3]; Homo sapiens, A549, 24 h): 22.7 ± 1 µM; IC50 ([4]; Homo sapiens, SGC-7901): 22.8 ± 0.6 µM; IC50 ([5]; Homo sapiens, HepG2, 24 h): 20.7 ± 0.1 µM; IC50 ([6]; Homo sapiens, HeLa): 19.4 ± 0.6 µM; IC50 ([7]; Homo sapiens, THP-1, 24 h): 20.8 ± 0.6 µM; IC50 ([8]; Homo sapiens): 28.3 ± 1.2 µM"
CN1C/C(=C\c2cccc([N+](=O)[O-])c2)C(=O)/C(=C/c2ccc(F)cc2Br)C1 [Compound 87],11.6 ± 0.3 µM,1.2,7.7 ± 0.4 µM,1.8,4.3 ± 0.3 µM,3.2,4.7 ± 0.3 µM,2.9,5.4 ± 0.5 µM,2.5,9.4 ± 0.5 µM,1.5,6.6 ± 0.1 µM,2.1,13.7 ± 0.5 µM,–
